Patent US4889860A (Nova Pharmaceutical Corporation, priority 1987, dated 1989)

Assays:
[1] = target: T1, mu-type opioid receptor (Rattus norvegicus, UniProt P33535); test: inhibition of specific [^3 H] DAGO binding to rat forebrain membranes
T1 construct: using rat forebrain membranes; from tissue; host or cells: rat forebrain membranes

[2] = water intake in 24 hr food-deprived rats; format: in vivo, rat; conditions: for Water Intake: Table 3, 24 hr; for Cumulative Water Intake: Table 5
Experimental: Rats were given water and powdered food ad lib for 8 days until food intake had stabilized, and body weight and food and water intakes were recorded at the same time every day. Animals were assigned to treatment groups matched on the basis of their 24 hr food consumption on the last baseline day, and rats were food deprived for 24 hr immediately before injection of the test compound. […] The compound of Example XII was injected S.C. at doses of 1.15, 2.31, 11.55 and 23.09 μmol/kg, in a volume of 4 ml/kg of 0.3% acetic acid. Controls were injected with the vehicle solutions in the appropriate volumes. Food and water intakes were measured at 1, 3 and 24 hr after treatment. Data for each measure and time point were analyzed by one-way analysis of variance (ANOVA), and post-hoc comparisons were performed using Dunnett's test in order to compare the control mean to each of the treatment means.
Rats were given water and powdered food for 8 days, and following this,
Testing was performed as described above, and baseline measurements were recorded for 7 days. […] The compound of Example XII was injected at doses of 11.55, 23.09, 46.19 and 92.38 μmol/kg by suspension in a solution of 1:1 DMSO:water in a volume of 3 ml/kg. Food and water intakes were recorded at 1, 2, 4 and 6 h following treatment.
See Table 3 for experimental details, except that baseline measurements

T1 sequence (P33535 whole entry): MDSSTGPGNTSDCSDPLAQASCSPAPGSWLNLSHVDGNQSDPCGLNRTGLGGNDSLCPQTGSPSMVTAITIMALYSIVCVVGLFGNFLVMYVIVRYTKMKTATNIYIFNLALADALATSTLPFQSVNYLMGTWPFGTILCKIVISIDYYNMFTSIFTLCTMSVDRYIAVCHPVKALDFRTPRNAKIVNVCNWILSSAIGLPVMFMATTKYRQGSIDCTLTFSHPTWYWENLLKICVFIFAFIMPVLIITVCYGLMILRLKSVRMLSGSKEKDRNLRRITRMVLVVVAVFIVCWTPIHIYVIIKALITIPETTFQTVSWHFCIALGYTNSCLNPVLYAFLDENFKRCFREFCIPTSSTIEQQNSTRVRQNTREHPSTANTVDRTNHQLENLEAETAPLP

In the case of Oc1ccc2c3c1O[C@H]1C(=NOc4ccccc4)CC[C@@]4(O)[C@@H](C2)N(CC2CC2)CC[C@]314 [Example XII, 6-Phenyloximino-17-cyclopropylmethyl-4,5 α-epoxy-3, 14-dihydroxymorphinan], the Ki ([1]; (Ki) nM, μ receptor (Rat Forebrain), Table 6, [^3 H] DAGO, mean of three experiments) is reported as 0.3 nM, the Ki ([1]; Ki, inhibition of specific [^3 H] DAGO binding, Tables 1 and 2, rat brain membranes, MEAN±S.E.M.) is reported as 0.21 ± 0.08 nM and the “Water Intake” value ([2]; S.C. 1.15 μmol/kg) is reported as 68.3 ± 8.8 mL. For the same compound, the “Water Intake” value ([2]; S.C. 2.31 μmol/kg) was 65.0 ± 6.2 mL, the “Water Intake” value ([2]; S.C. 11.55 μmol/kg) was 60.3 ± 2.1 mL and the “Water Intake” value ([2]; S.C. 23.09 μmol/kg) was 62.8 ± 3.6 mL. The “Cumulative Water Intake” value ([2]; S.C. 11.55 μmol/kg, 0-1 Hr) was 4.8 ± 1.1 mL, the “Cumulative Water Intake” value ([2]; S.C. 11.55 μmol/kg, 0-2 Hr) was 8.0 ± 1.2 mL and the “Cumulative Water Intake” value ([2]; S.C. 11.55 μmol/kg, 0-4 Hr) was 15.6 ± 2.5 mL. For the same compound, the “Cumulative Water Intake” value ([2]; S.C. 11.55 μmol/kg, 0-6 Hr) was 22.0 ± 1.6 mL, the “Cumulative Water Intake” value ([2]; S.C. 23.09 μmol/kg, 0-1 Hr) was 4.0 ± 1.0 mL and the “Cumulative Water Intake” value ([2]; S.C. 23.09 μmol/kg, 0-2 Hr) was 7.2 ± 0.6 mL. For the same compound, the “Cumulative Water Intake” value ([2]; S.C. 23.09 μmol/kg, 0-4 Hr) was 13.2 ± 2.3 mL, the “Cumulative Water Intake” value ([2]; S.C. 23.09 μmol/kg, 0-6 Hr) was 19.6 ± 2.2 mL and the “Cumulative Water Intake” value ([2]; S.C. 46.19 μmol/kg, 0-1 Hr) was 5.2 ± 0.9 mL. For the same compound, the “Cumulative Water Intake” value ([2]; S.C. 46.19 μmol/kg, 0-2 Hr) was 8.0 ± 1.6 mL, the “Cumulative Water Intake” value ([2]; S.C. 46.19 μmol/kg, 0-4 Hr) was 15.2 ± 1.5 mL and the “Cumulative Water Intake” value ([2]; S.C. 46.19 μmol/kg, 0-6 Hr) was 20.8 ± 2.9 mL. For the same compound, the “Cumulative Water Intake” value ([2]; S.C. 92.38 μmol/kg, 0-1 Hr) was 4.0 ± 0.7 mL, the “Cumulative Water Intake” value ([2]; S.C. 92.38 μmol/kg, 0-2 Hr) was 7.6 ± 0.8 mL and the “Cumulative Water Intake” value ([2]; S.C. 92.38 μmol/kg, 0-4 Hr) was 15.2 ± 1.8 mL. For the same compound, the “Cumulative Water Intake” value ([2]; S.C. 92.38 μmol/kg, 0-6 Hr) was 21.2 ± 2.1 mL.
